Source: ChEMBL document CHEMBL1135169, “4,4-Disubstituted cyclohexylamine NK(1) receptor antagonists I” (Bioorg Med Chem Lett, 2002)

tested on: Gerbillinae; assay: Inhibitory dose after 24 hours required to produce blockade of foot-tapping activity induced by central infusion of NK1-agonist GR-73632; type: functional; details: read-out: ID50 (the source's name)

Compound | ED50 [mg/kg]
CC(C(=O)N[C@]1(c2ccccc2)CC[C@@H](N2CCC(c3ccc(F)cc3)CC2)CC1)c1cc(C(F)(F)F)cc(C(F)(F)F)c1 (mixture of isomers) | 1.8

tested on: Gerbillinae; assay: Inhibitory dose required to produce blockade of foot-tapping activity induced by central infusion of NK1-agonist GR-73632; type: functional; details: read-out: ID50 (the source's name)

Compound | ED50 [mg/kg]
CC(C(=O)N[C@]1(c2ccccc2)CC[C@@H](N2CCC(c3ccc(F)cc3)CC2)CC1)c1cc(C(F)(F)F)cc(C(F)(F)F)c1 (mixture of isomers) | 1.7
O=C(NCc1cc(C(F)(F)F)cc(C(F)(F)F)c1)[C@]1(c2ccccc2)CC[C@H](N2CCC(c3ccc(F)cc3)CC2)CC1 | 1.9

target: T1, Substance-P receptor (Homo sapiens, UniProt P25103); assay: Displacement of [125I]-labeled substance P from the cloned Tachykinin receptor 1; details: not given
T1 sequence (P25103 whole entry): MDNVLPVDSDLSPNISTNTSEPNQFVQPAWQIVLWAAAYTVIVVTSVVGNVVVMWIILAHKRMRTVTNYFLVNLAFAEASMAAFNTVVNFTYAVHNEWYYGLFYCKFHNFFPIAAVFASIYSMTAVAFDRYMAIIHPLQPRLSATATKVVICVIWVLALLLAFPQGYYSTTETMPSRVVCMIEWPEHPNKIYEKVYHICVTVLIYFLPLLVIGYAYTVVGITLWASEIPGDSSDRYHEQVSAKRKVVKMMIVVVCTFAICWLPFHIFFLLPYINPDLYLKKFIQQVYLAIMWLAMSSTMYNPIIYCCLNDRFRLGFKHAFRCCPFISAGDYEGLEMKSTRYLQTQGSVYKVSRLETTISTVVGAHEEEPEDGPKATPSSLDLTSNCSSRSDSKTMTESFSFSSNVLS

Compound | IC50 [nM]
O=C(NC[C@]1(c2ccccc2)CC[C@@H](N2CCC(c3ccc(F)cc3)CC2)CC1)c1cc(C(F)(F)F)cc(C(F)(F)F)c1 | 250
O=C(OCc1cc(C(F)(F)F)cc(C(F)(F)F)c1)[C@]1(c2ccccc2)CC[C@@H](N2CCC(c3ccc(F)cc3)CC2)CC1 | 140
CC(C)(C(=O)N[C@]1(c2ccccc2)CC[C@@H](N2CCC(c3ccc(F)cc3)CC2)CC1)c1cc(C(F)(F)F)cc(C(F)(F)F)c1 | 0.49
O=C(OC[C@]1(c2ccccc2)CC[C@H](N2CCC(c3ccc(F)cc3)CC2)CC1)c1cc(C(F)(F)F)cc(C(F)(F)F)c1 | 120
CC(NC(=O)[C@]1(c2ccccc2)CC[C@@H](N2CCC(c3ccc(F)cc3)CC2)CC1)c1cc(C(F)(F)F)cc(C(F)(F)F)c1 (mixture of isomers) | 0.77
Fc1ccc(C2CCN([C@H]3CC[C@](CNCc4cc(C(F)(F)F)cc(C(F)(F)F)c4)(c4ccccc4)CC3)CC2)cc1 | 1.7
CC(OC[C@]1(c2ccccc2)CC[C@@H](N2CCC(c3ccc(F)cc3)CC2)CC1)c1cc(C(F)(F)F)cc(C(F)(F)F)c1 (mixture of isomers) | 5.3
Fc1ccc(C2CCN(C3CCC(CCCc4cc(C(F)(F)F)cc(C(F)(F)F)c4)(c4ccccc4)CC3)CC2)cc1 (mixture of isomers) | 40
O=C(NCc1cc(C(F)(F)F)cc(C(F)(F)F)c1)[C@]1(c2ccccc2)CC[C@@H](N2CCC(c3ccc(F)cc3)CC2)CC1 | 150
OCC(OC[C@]1(c2ccccc2)CC[C@@H](N2CCC(c3ccc(F)cc3)CC2)CC1)c1cc(C(F)(F)F)cc(C(F)(F)F)c1 (mixture of isomers) | 0.75
O=C(Cc1cc(C(F)(F)F)cc(C(F)(F)F)c1)N[C@]1(c2ccccc2)CC[C@H](N2CCC(c3ccc(F)cc3)CC2)CC1 | 0.7
O=C(Cc1cc(C(F)(F)F)cc(C(F)(F)F)c1)N[C@]1(c2ccccc2)CC[C@@H](N2CCC(c3ccc(F)cc3)CC2)CC1 | 85
O=C(OCc1cc(C(F)(F)F)cc(C(F)(F)F)c1)[C@]1(c2ccccc2)CC[C@H](N2CCC(c3ccc(F)cc3)CC2)CC1 | 2.5
Fc1ccc(C2CCN([C@H]3CC[C@@](CNCc4cc(C(F)(F)F)cc(C(F)(F)F)c4)(c4ccccc4)CC3)CC2)cc1 | 82
O=C(NC[C@]1(c2ccccc2)CC[C@H](N2CCC(c3ccc(F)cc3)CC2)CC1)c1cc(C(F)(F)F)cc(C(F)(F)F)c1 | 6.3
CC(C)(NC(=O)[C@]1(c2ccccc2)CC[C@@H](N2CCC(c3ccc(F)cc3)CC2)CC1)c1cc(C(F)(F)F)cc(C(F)(F)F)c1 | 0.62
CC(NC(=O)[C@]1(c2ccccc2)CC[C@@H](N2CCC(c3ccc(F)cc3)CC2)CC1)c1cc(C(F)(F)F)cc(C(F)(F)F)c1 (single isomer, unassigned; (-)) | 1.5
O=C(NC(CO)c1cc(C(F)(F)F)cc(C(F)(F)F)c1)[C@]1(c2ccccc2)CC[C@@H](N2CCC(c3ccc(F)cc3)CC2)CC1 (mixture of isomers) | 0.29
Fc1ccc(C2CCN([C@H]3CC[C@](COCc4cc(C(F)(F)F)cc(C(F)(F)F)c4)(c4ccccc4)CC3)CC2)cc1 | 4.2
O=C(N[C@]1(c2ccccc2)CC[C@@H](N2CCC(c3ccc(F)cc3)CC2)CC1)C(CO)c1cc(C(F)(F)F)cc(C(F)(F)F)c1 (mixture of isomers) | 0.44
CC(C(=O)N[C@]1(c2ccccc2)CC[C@@H](N2CCC(c3ccc(F)cc3)CC2)CC1)c1cc(C(F)(F)F)cc(C(F)(F)F)c1 (mixture of isomers) | 0.63
CC(NC(=O)[C@]1(c2ccccc2)CC[C@@H](N2CCC(c3ccc(F)cc3)CC2)CC1)c1cc(C(F)(F)F)cc(C(F)(F)F)c1 (stereo in doubt; (+)-29a) | 0.35
O=C(NCc1cc(C(F)(F)F)cc(C(F)(F)F)c1)[C@]1(c2ccccc2)CC[C@H](N2CCC(c3ccc(F)cc3)CC2)CC1 | 0.34
O=C(NCc1cc(C(F)(F)F)cc(C(F)(F)F)c1)C1(c2ccccc2)CCNCC1 | 130
Fc1ccc(C2CCN([C@H]3CC[C@@](COCc4cc(C(F)(F)F)cc(C(F)(F)F)c4)(c4ccccc4)CC3)CC2)cc1 | 59

tested on: Gerbillinae; assay: Inhibitory dose after 2 hours required to produce blockade of foot-tapping activity induced by central infusion of NK1-agonist GR-73632; type: functional; details: read-out: ID50 (the source's name)

Compound | ED50 [mg/kg]
CC(C(=O)N[C@]1(c2ccccc2)CC[C@@H](N2CCC(c3ccc(F)cc3)CC2)CC1)c1cc(C(F)(F)F)cc(C(F)(F)F)c1 (mixture of isomers) | 0.6

target: T1, Substance-P receptor; assay: Tested for inhibitory concentration expressed as displacement of [125I]-labeled substance P from the cloned Tachykinin receptor 1 expressed in CHO cells at dosage of 1000 nM; type: cell-based; details: not given

Compound | inhibition [%]
O=C(OC[C@]1(c2ccccc2)CC[C@@H](N2CCC(c3ccc(F)cc3)CC2)CC1)c1cc(C(F)(F)F)cc(C(F)(F)F)c1 | 50

tested on: Gerbillinae; assay: Inhibitory activity when the NK1 agonist challenge was given 2 hr after dosing at 3 mg/kg, iv; type: functional; details: not given

Compound | inhibition in vivo at 3 mg/kg [%]
O=C(NCc1cc(C(F)(F)F)cc(C(F)(F)F)c1)[C@]1(c2ccccc2)CC[C@H](N2CCC(c3ccc(F)cc3)CC2)CC1 | 15

target: T1, Substance-P receptor; assay: Tested for inhibitory concentration expressed as displacement of [125I]-labeled substance P from the cloned human Tachykinin receptor 1 expressed in CHO cells; type: cell-based; details: not given

Compound | IC50 [nM]
FC(F)(F)c1cc(CO[C@H]2C3CCN(CC3)[C@H]2c2ccccc2)cc(C(F)(F)F)c1 | 0.2
